Active and inactive are the calls of the source. The calls are words filed in the database; no cut-off is given here.
Legend:
[1] = target: T1, Free fatty acid receptor 4 (Homo sapiens, UniProt Q5NUL3); assay: Agonist activity at human GPR120 assessed as induction of beta-arrestin recruitment
T1 sequence (Q5NUL3 whole entry): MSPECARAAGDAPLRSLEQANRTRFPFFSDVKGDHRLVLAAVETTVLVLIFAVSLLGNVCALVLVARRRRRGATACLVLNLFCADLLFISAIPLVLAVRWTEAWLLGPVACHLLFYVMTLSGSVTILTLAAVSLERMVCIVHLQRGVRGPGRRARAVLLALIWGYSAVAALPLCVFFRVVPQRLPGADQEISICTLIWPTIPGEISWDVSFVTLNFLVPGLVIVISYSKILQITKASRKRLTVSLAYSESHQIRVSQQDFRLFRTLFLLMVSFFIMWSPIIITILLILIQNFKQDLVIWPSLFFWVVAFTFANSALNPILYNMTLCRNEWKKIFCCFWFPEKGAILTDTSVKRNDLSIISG

[2] = target: T2, Free fatty acid receptor 4 (Mus musculus, UniProt Q7TMA4); assay: Agonist activity at mouse GPR120 assessed as induction of beta-arrestin recruitment
T2 sequence (Q7TMA4 whole entry): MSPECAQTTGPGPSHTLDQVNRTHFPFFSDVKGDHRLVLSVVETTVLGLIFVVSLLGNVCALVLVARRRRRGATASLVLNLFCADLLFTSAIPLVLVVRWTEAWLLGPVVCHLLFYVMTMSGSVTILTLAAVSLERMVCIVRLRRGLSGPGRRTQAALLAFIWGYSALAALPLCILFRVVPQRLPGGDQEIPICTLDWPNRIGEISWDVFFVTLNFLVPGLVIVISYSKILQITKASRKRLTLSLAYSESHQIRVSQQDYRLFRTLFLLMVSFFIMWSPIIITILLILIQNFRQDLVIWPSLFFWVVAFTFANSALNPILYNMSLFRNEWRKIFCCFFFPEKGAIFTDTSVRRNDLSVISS

[3] = target: T3, Free fatty acid receptor 1 (Homo sapiens, UniProt O14842); assay: Agonist activity at human GPR40 assessed as induction of IP1 accumulation; format: functional
T3 sequence (O14842 whole entry): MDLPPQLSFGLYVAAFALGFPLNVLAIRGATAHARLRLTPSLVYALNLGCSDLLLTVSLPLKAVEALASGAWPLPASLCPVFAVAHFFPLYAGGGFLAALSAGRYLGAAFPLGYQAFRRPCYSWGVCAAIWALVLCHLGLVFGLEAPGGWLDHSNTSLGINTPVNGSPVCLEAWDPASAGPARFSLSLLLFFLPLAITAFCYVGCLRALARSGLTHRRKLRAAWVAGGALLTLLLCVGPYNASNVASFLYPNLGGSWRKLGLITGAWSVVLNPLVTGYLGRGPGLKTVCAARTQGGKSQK

[4] = target: T3, Free fatty acid receptor 1; assay: Agonist activity at human GPR40 expressed in HEK293 cells assessed as induction of IP1 accumulation after 60 mins by HTRF assay; format: functional, cell-based
[5] = target: T2, Free fatty acid receptor 4; assay: Agonist activity at mouse GPR120 expressed in U2OS cells assessed as induction of beta-arrestin2 recruitment after 90 mins by luminescence assay; format: cell-based
[6] = target: T2, Free fatty acid receptor 4; assay: Agonist activity at mouse GPR120 expressed in CHOK1 cells assessed as induction of IP1 accumulation after 60 mins by HTRF assay; format: functional, cell-based, CHO-K1
[7] = target: T1, Free fatty acid receptor 4; assay: Agonist activity at ARMS2-PK2 -tagged human GPR120 short isoform expressed in CHOK1 cells assessed as induction of beta-arrestin2 recruitment after 90 mins by luminescence assay; format: cell-based, CHO-K1
[8] = target: T1, Free fatty acid receptor 4; assay: Agonist activity at human GPR120 short isoform expressed in CHOK1 cells assessed as induction of IP1 accumulation after 60 mins by HTRF assay; format: functional, cell-based, CHO-K1
[9] = test system: Mus musculus; assay: Antidiabetic activity in diet-induced obese mouse assessed as insulin sensitivity by measuring reduction in glucose at 10 mg/kg, po qd administered daily via gavage for 14 days measured on day 14 post dose; format: functional, organism-based
[10] = test system: Mus musculus; assay: Decrease in insulin levels in diet-induced obese mouse at 10 mg/kg, po qd administered daily via gavage for 14 days measured on day 14 post dose; format: functional, organism-based
[11] = test system: Mus musculus; assay: Toxicity in diet-induced obese mouse assessed as change in body weight at 10 mg/kg, po qd administered daily via gavage for 28 days; format: organism-based; details: in vivo, 672 h
[12] = test system: Mus musculus; assay: Decrease in insulin levels in diet-induced obese mouse at 10 mg/kg, po qd administered daily via gavage for 28 days measured on day 28 post dose; format: functional, organism-based
[13] = test system: Mus musculus; assay: Antidiabetic activity in diet-induced obese mouse assessed as insulin sensitivity by measuring reduction in glucose at 10 mg/kg, po qd administered daily via gavage for 28 days measured on day 28 post dose; format: functional, organism-based
[14] = test system: Mus musculus; assay: Antidiabetic activity in diet-induced obese mouse assessed as increase in glucose infusion rate during hyperinsulinemic euglycemic clamp procedure at 10 mg/kg, po qd administered daily via gavage measured after 28 days; format: functional, organism-based
[15] = target: T1, Free fatty acid receptor 4; assay: Agonist activity at human GPR120 assessed as induction of IP1 accumulation; format: functional
[16] = target: T2, Free fatty acid receptor 4; assay: Agonist activity at mouse GPR120 assessed as induction of IP1 accumulation; format: functional

| EC50 [4] | EC50 [5] | EC50 [6] | EC50 [7] | EC50 [8] | Compound | other results |
| --- | --- | --- | --- | --- | --- | --- |
| > 10000 nM | 3000 nM | 590 nM | 2200 nM | 1200 nM | O=C(O)CC1CCC2(CC1)CCN(c1cc(C(F)(F)F)ccc1F)CC2 | – |
| – | – | – | 4400 nM | 3500 nM | CC(C(=O)O)C1CCC2(CC1)CCN(c1cc(OC(F)(F)F)ccc1Cl)CC2 (stereo unspecified) | – |
| – | – | – | 2100 nM | 5700 nM | O=C(O)CC1CCC2(CCN(c3cc(OC(F)(F)F)ccc3Cl)CC2)OC1 (stereo unspecified) | – |
| 6300 nM | 120 nM | 51 nM | 190 nM | 220 nM | O=C(O)CC1CCC2(CC1)CCN(c1cc(Cl)cc(Cl)c1)CC2 | – |
| 8100 nM | 1100 nM | 190 nM | 1400 nM | 420 nM | O=C(O)CC1CCC2(CC1)CCN(c1cc(F)cc(Cl)c1F)CC2 | – |
| – | – | – | 1000 nM | 2700 nM | O=C(O)CCC1CCC2(CC1)CCN(c1cc(OC(F)(F)F)ccc1Cl)CC2 | – |
| – | – | – | 2700 nM | 4100 nM | CC1CC2(CCC1CC(=O)O)CCN(c1cc(OC(F)(F)F)ccc1Cl)CC2 (stereo unspecified) | – |
| > 10000 nM | 4000 nM | 670 nM | 3100 nM | 3300 nM | CC1(C)Cc2cc(Cl)cc(N3CCC4(CCC(CC(=O)O)CC4)CC3)c2O1 | – |
| > 10000 nM | > 10000 nM | > 10000 nM | > 10000 nM | > 10000 nM | O=C(O)CC1CCC2(CC1)CCN(c1ccccc1Cl)CC2 | – |
| > 10000 nM | 5300 nM | 570 nM | 2500 nM | 2100 nM | COc1ccc(Cl)c(N2CCC3(CCC(CC(=O)O)CC3)CC2)c1 | – |
| – | – | – | 580 nM | 440 nM | CC1CC(CC(=O)O)CCC12CCN(c1cc(OC(F)(F)F)ccc1Cl)CC2 (stereo unspecified) | – |
| > 10000 nM | 470 nM | 49 nM | 700 nM | 130 nM | O=C(O)CC1CCC2(CC1)CCN(c1cc(OC(F)(F)F)ccc1F)CC2 | – |
| 2500 nM | 290 nM | 66 nM | 370 nM | 200 nM | N#Cc1ccc(OC(F)(F)F)cc1N1CCC2(CCC(CC(=O)O)CC2)CC1 | – |
| – | – | – | 330 nM | 4300 nM | OCCC1CCC2(CC1)CCN(c1cc(OC(F)(F)F)ccc1Cl)CC2 | – |

More lines, now with the values behind:

| Compound | EC50 [4] | EC50 [5] | EC50 [6] | EC50 [7] | EC50 [8] | other results |
| --- | --- | --- | --- | --- | --- | --- |
| Cc1cc(-c2cc(OC(F)(F)F)ccc2Cl)cc(C)c1OCCCC(=O)O | – | – | – | – | – | EC50 [1]: 100 nM; EC50 [2]: 35 nM; EC50 [3]: > 10000 nM |
| N#Cc1cc(SC(F)(F)F)cc(N2CCC3(CCC(CC(=O)O)CC3)CC2)c1 | > 10000 nM | 140 nM | 44 nM | 480 nM | 360 nM | – |
| O=C(O)CC1CCC2(CC1)CCN(c1cc(C(F)(F)F)ccn1)CC2 | > 10000 nM | 4200 nM | 1300 nM | 9200 nM | 3100 nM | – |
| O=C(O)CCc1cc2cc(-c3cc(OC(F)(F)F)ccc3F)ccc2o1 | – | – | – | – | – | EC50 [1]: 16 nM; EC50 [2]: 21 nM |
| CCc1ccc(CCOc2ccc(CC3SC(=O)NC3=O)cc2)nc1 (stereo unspecified) [PIOGLITAZONE] | – | – | – | – | – | Activity [9]: Active; Activity [10]: Active; Activity [11]: Toxic; Activity [12]: Active; Activity [13]: Active; Activity [14]: Active |
| O=C(O)C1CC12CCC1(CCN(c3cc(OC(F)(F)F)ccc3Cl)CC1)CC2 (stereo unspecified) | – | – | – | 3900 nM | 2200 nM | – |
| O=C(O)c1ccc(C2CCN(c3cc(OC(F)(F)F)ccc3F)CC2)cc1 | – | – | – | – | – | EC50 [1]: > 10000 nM; EC50 [2]: > 10000 nM; EC50 [3]: > 10000 nM; EC50 [15]: > 10000 nM; EC50 [16]: > 10000 nM |
| O=C(O)C1CCC(C2CCN(c3cc(OC(F)(F)F)ccc3F)CC2)CC1 (stereo unspecified) | – | – | – | – | – | EC50 [2]: 990 nM; EC50 [3]: > 10000 nM; EC50 [15]: 700 nM; EC50 [16]: 1490 nM |
| O=C(O)CN1CCC2(CC1)CCN(c1cc(OC(F)(F)F)ccc1F)CC2 | – | – | – | > 10000 nM | > 10000 nM | – |
| O=C(O)C1CCN(c2ccc(-c3cc(OC(F)(F)F)ccc3F)cc2)CC1 | – | – | – | – | – | EC50 [1]: 1600 nM; EC50 [2]: 320 nM; EC50 [3]: > 10000 nM; EC50 [15]: 300 nM; EC50 [16]: 89 nM |

Reference: ChEMBL document CHEMBL3872283, “Design, Synthesis, and Evaluation of Novel and Selective G-protein Coupled Receptor 120 (GPR120) Spirocyclic Agonists” (ACS Med Chem Lett, 2017)
